Experimental data as given in PubChem BioAssay AID1259407 (Chemical Carcinogenesis Research Information System (CCRIS), 2018).
Activity calls are given as the source filed them. The rule behind the calls is not given here.

System: CCRIS mutagenicity, Ames/micronucleus/aberration tests
Test: CCRIS mutagenicity studies
[1] = Test System: AMES SALMONELLA TYPHIMURIUM, Strain/Indicator: TA98, Metabolic Activation: NONE, Method: STANDARD PLATE
[2] = Test System: AMES SALMONELLA TYPHIMURIUM, Strain/Indicator: TA98, Metabolic Activation: NONE, Method: PREINCUBATION
[3] = Test System: AMES SALMONELLA TYPHIMURIUM, Strain/Indicator: TA100, Metabolic Activation: NONE, Method: PREINCUBATION
[4] = Test System: AMES SALMONELLA TYPHIMURIUM, Strain/Indicator: TA100, Metabolic Activation: NONE, Method: STANDARD PLATE

For O=[N+]([O-])c1cc([N+](=O)[O-])c2c3c(c4cccc5ccc1c2c54)CCCC3, the mutagenic call [1] was “active; positive” and the mutagenic call (Test System: AMES SALMONELLA TYPHIMURIUM, Strain/Indicator: TA98, Metabolic Activation: RAT, LIVER, S-9, AROCLOR 1254, Method: STANDARD PLATE) was “active; positive”.

In the case of COc1cccc(N)c1, the mutagenic call (End Point: IN VITRO CHROMOSOMAL ABERRATIONS, Test System: CHINESE HAMSTER OVARY CELLS, Metabolic Activation: NONE) is reported as “active; positive”, the mutagenic call (End Point: IN VITRO CHROMOSOMAL ABERRATIONS, Test System: CHINESE HAMSTER OVARY CELLS, Metabolic Activation: RAT, LIVER, S-9, AROCLOR 1254) is reported as “inactive; negative” and the mutagenic call (Test System: AMES SALMONELLA TYPHIMURIUM, Strain/Indicator: TA98, Metabolic Activation: HAMSTER, LIVER, S-9, AROCLOR 1254, Method: PREINCUBATION) is reported as “inactive; negative”. For the same compound, the mutagenic call [2] was “inactive; negative”, the mutagenic call (Test System: AMES SALMONELLA TYPHIMURIUM, Strain/Indicator: TA98, Metabolic Activation: RAT, LIVER, S-9, AROCLOR 1254, Method: PREINCUBATION) was “inactive; negative” and the mutagenic call (Test System: AMES SALMONELLA TYPHIMURIUM, Strain/Indicator: TA100, Metabolic Activation: HAMSTER, LIVER, S-9, AROCLOR 1254, Method: PREINCUBATION) was “inactive; negative”. For the same compound, the mutagenic call [3] was “inactive; negative”, the mutagenic call (Test System: AMES SALMONELLA TYPHIMURIUM, Strain/Indicator: TA100, Metabolic Activation: RAT, LIVER, S-9, AROCLOR 1254, Method: PREINCUBATION) was “inactive; negative” and the mutagenic call (Test System: AMES SALMONELLA TYPHIMURIUM, Strain/Indicator: TA102, Metabolic Activation: NONE, Method: STANDARD PLATE) was “inactive; negative”. The mutagenic call (Test System: AMES SALMONELLA TYPHIMURIUM, Strain/Indicator: TA1535, Metabolic Activation: HAMSTER, LIVER, S-9, AROCLOR 1254, Method: PREINCUBATION) was “inactive; negative”, the mutagenic call (Test System: AMES SALMONELLA TYPHIMURIUM, Strain/Indicator: TA1535, Metabolic Activation: NONE, Method: PREINCUBATION) was “inactive; negative” and the mutagenic call (Test System: AMES SALMONELLA TYPHIMURIUM, Strain/Indicator: TA1535, Metabolic Activation: RAT, LIVER, S-9, AROCLOR 1254, Method: PREINCUBATION) was “inactive; negative”. The mutagenic call (Test System: AMES SALMONELLA TYPHIMURIUM, Strain/Indicator: TA1537, Metabolic Activation: HAMSTER, LIVER, S-9, AROCLOR 1254, Method: PREINCUBATION) was “inactive; negative”, the mutagenic call (Test System: AMES SALMONELLA TYPHIMURIUM, Strain/Indicator: TA1537, Metabolic Activation: NONE, Method: PREINCUBATION) was “inactive; negative” and the mutagenic call (Test System: AMES SALMONELLA TYPHIMURIUM, Strain/Indicator: TA1537, Metabolic Activation: RAT, LIVER, S-9, AROCLOR 1254, Method: PREINCUBATION) was “inactive; negative”. The mutagenic call (Test System: AMES SALMONELLA TYPHIMURIUM, Strain/Indicator: TA2638, Metabolic Activation: NONE, Method: STANDARD PLATE) was “inactive; negative”, the mutagenic call (Test System: E. COLI, Strain/Indicator: WP2 (PKM101), Metabolic Activation: NONE, Method: STANDARD PLATE) was “inactive; negative” and the mutagenic call (Test System: E. COLI, Strain/Indicator: WP2 UVRA (PKM101), Metabolic Activation: NONE, Method: STANDARD PLATE) was “inactive; negative”.

CCn1cc(C(=O)O)c(=O)c2cnc(N3CCNCC3)nc21 was tested, and the mutagenic call (End Point: In vitro micronucleus, Test System: WTK-1 human lymphoma cells, Metabolic Activation: None) was “inactive; negative”, the mutagenic call [2] was “inactive; negative” and the mutagenic call (Test System: AMES SALMONELLA TYPHIMURIUM, Strain/Indicator: TA98, Metabolic Activation: RAT LIVER S-9, AROCLOR 1254, Method: PREINCUBATION) was “inactive; negative”. For the same compound, the mutagenic call [3] was “inactive; negative”, the mutagenic call (Test System: AMES SALMONELLA TYPHIMURIUM, Strain/Indicator: TA100, Metabolic Activation: RAT LIVER S-9, AROCLOR 1254, Method: PREINCUBATION) was “inactive; negative” and the mutagenic call (Test System: AMES SALMONELLA TYPHIMURIUM, Strain/Indicator: TA102, Metabolic Activation: RAT LIVER S-9, AROCLOR 1254, Method: PREINCUBATION) was “active; positive”. For the same compound, the mutagenic call (Test System: AMES SALMONELLA TYPHIMURIUM, Strain/Indicator: TA104, Metabolic Activation: NONE, Method: PREINCUBATION) was “inactive; negative”, the mutagenic call (Test System: AMES SALMONELLA TYPHIMURIUM, Strain/Indicator: TA104, Metabolic Activation: RAT LIVER S-9, AROCLOR 1254, Method: PREINCUBATION) was “inactive; negative” and the mutagenic call (Test System: AMES SALMONELLA TYPHIMURIUM, Strain/Indicator: UHT8414, Metabolic Activation: NONE, Method: PREINCUBATION) was “inactive; negative”. For the same compound, the mutagenic call (Test System: AMES SALMONELLA TYPHIMURIUM, Strain/Indicator: UHT8414, Metabolic Activation: RAT LIVER S-9, AROCLOR 1254, Method: PREINCUBATION) was “inactive; negative”.

O/C=C/Cc1ccc2c(c1)OCO2 was tested, and the mutagenic call (Test System: UDS HUMAN FIBROBLASTS, Strain/Indicator: THY INCORP (NON-S-PHASE), Metabolic Activation: NONE, Method: AUTORADIOGRAPHY) was “active; positive”.

For NC[C@H]1CCCN1.O=C([O-])C1(C(=O)[O-])CCC1.[Pt+2], the mutagenic call [1] was “inactive; negative”, the mutagenic call (Test System: AMES SALMONELLA TYPHIMURIUM, Strain/Indicator: TA98, Metabolic Activation: RAT, LIVER, S-9, PHENOBARBITAL AND 5,6-BENZOFLAVONE, Method: STANDARD PLATE) was “inactive; negative” and the mutagenic call [4] was “inactive; negative”. The mutagenic call (Test System: AMES SALMONELLA TYPHIMURIUM, Strain/Indicator: TA100, Metabolic Activation: RAT, LIVER, S-9, PHENOBARBITAL AND 5,6-BENZOFLAVONE, Method: STANDARD PLATE) was “inactive; negative”, the mutagenic call (Test System: AMES SALMONELLA TYPHIMURIUM, Strain/Indicator: TA1535, Metabolic Activation: NONE, Method: STANDARD PLATE) was “inactive; negative” and the mutagenic call (Test System: AMES SALMONELLA TYPHIMURIUM, Strain/Indicator: TA1535, Metabolic Activation: RAT, LIVER, S-9, PHENOBARBITAL AND 5,6-BENZOFLAVONE, Method: STANDARD PLATE) was “inactive; negative”. For the same compound, the mutagenic call (Test System: AMES SALMONELLA TYPHIMURIUM, Strain/Indicator: TA1537, Metabolic Activation: NONE, Method: STANDARD PLATE) was “inactive; negative”, the mutagenic call (Test System: AMES SALMONELLA TYPHIMURIUM, Strain/Indicator: TA1537, Metabolic Activation: RAT, LIVER, S-9, PHENOBARBITAL AND 5,6-BENZOFLAVONE, Method: STANDARD PLATE) was “inactive; negative” and the mutagenic call (Test System: E. COLI, Strain/Indicator: WP2 UVRA, Metabolic Activation: NONE, Method: STANDARD PLATE) was “inactive; negative”. The mutagenic call (Test System: E. COLI, Strain/Indicator: WP2 UVRA, Metabolic Activation: RAT, LIVER, S-9, PHENOBARBITAL AND 5,6-BENZOFLAVONE, Method: STANDARD PLATE) was “inactive; negative”.

With Cc1ccc2c(c1)C(=O)c1ccccc1C2=O the mutagenic call (Test System: AMES SALMONELLA TYPHIMURIUM, Strain/Indicator: TA97, Metabolic Activation: NONE, Method: STANDARD PLATE) was “inactive; negative”, the mutagenic call (Test System: AMES SALMONELLA TYPHIMURIUM, Strain/Indicator: TA97, Metabolic Activation: RAT, LIVER, S-9, PCB, Method: STANDARD PLATE) was “inactive; negative” and the mutagenic call [2] was “inactive; negative”. For the same compound, the mutagenic call [1] was “inactive; negative”, the mutagenic call (Test System: AMES SALMONELLA TYPHIMURIUM, Strain/Indicator: TA98, Metabolic Activation: RAT, LIVER, S-9, PCB, Method: PREINCUBATION) was “inactive; negative” and the mutagenic call (Test System: AMES SALMONELLA TYPHIMURIUM, Strain/Indicator: TA98, Metabolic Activation: RAT, LIVER, S-9, PCB, Method: STANDARD PLATE) was “inactive; negative”. The mutagenic call [3] was “inactive; negative”, the mutagenic call [4] was “inactive; negative” and the mutagenic call (Test System: AMES SALMONELLA TYPHIMURIUM, Strain/Indicator: TA100, Metabolic Activation: RAT, LIVER, S-9, PCB, Method: PREINCUBATION) was “inactive; negative”. For the same compound, the mutagenic call (Test System: AMES SALMONELLA TYPHIMURIUM, Strain/Indicator: TA100, Metabolic Activation: RAT, LIVER, S-9, PCB, Method: STANDARD PLATE) was “inactive; negative”.

With Cc1cc(N=Nc2ccccc2)c(N)cc1N the mutagenic call (Test System: AMES SALMONELLA TYPHIMURIUM, Strain/Indicator: TA100, Metabolic Activation: HUMAN, LIVER, S-9, Method: PREINCUBATION) was “inactive; negative”, the mutagenic call (Test System: AMES SALMONELLA TYPHIMURIUM, Strain/Indicator: TA100, Metabolic Activation: RAT, LIVER, HEPATOCYTES, Method: PREINCUBATION) was “inactive; negative” and the mutagenic call (Test System: AMES SALMONELLA TYPHIMURIUM, Strain/Indicator: TA100, Metabolic Activation: RAT, LIVER, S-9, BETA-NAPHTHOFLAVONE, Method: PREINCUBATION) was “active; positive”. The mutagenic call (Test System: AMES SALMONELLA TYPHIMURIUM, Strain/Indicator: TA100, Metabolic Activation: RAT, LIVER, S-9, PHENOBARBITAL, Method: PREINCUBATION) was “active; positive”, the mutagenic call (Test System: AMES SALMONELLA TYPHIMURIUM, Strain/Indicator: TA100, Metabolic Activation: RAT, LIVER, S-9, Method: PREINCUBATION) was “active; positive” and the mutagenic call (Test System: UDS RODENT HEPATOCYTES, Strain/Indicator: THY INCORP, Metabolic Activation: NONE, Method: AUTORADIOGRAPHY) was “active; positive”.
